Measured values reported in patent publication US9688733B2, “Method for treating spinal cord injury using HMGB1 fragment” (GENOMIX CO., LTD, priority 2012, dated 2017).
“Also recorded” adds a separate entry of the source.

Assays:
[1] = test system: mouse bone marrow mesenchymal stem cell line (MSC-1 cell); experiment: Migration-promoting activity in chemotaxis chamber; type: cell-based; conditions: MSC-1 cells; for migration-promoting activity: 100 μg/ml in lower chamber, positive control full-length mouse HMGB1 (1-215(HEK)), FIG. 1A
Method: The peptides listed below were custom synthesized using the solid phase method by Medical & Biological Laboratories (MBL). The peptides were synthesized based on the mouse HMGB1 sequence. Amino acid sequences from positions 1 to 169 of mouse HMGB1 and human HMGB1 are identical, i.e., shares 100% sequence homology.
the full-length mouse HMGB1 produced in HEK293 (1-215(HEK)) as a positive control were adjusted to 100 μg/ml and placed in the lower chamber of a chemotaxis chamber to assess the migration-promoting activity on mouse bone marrow mesenchymal stem cell line (MSC-1 cell; produced by Osaka University, Tamai et al., (Tamai et al., Proc Natl Acad Sci USA., 108(16): 6609-6614, 2011)). (Results)
As positive controls, centrifuged supernatant of the skin of a one-day-old mouse (one individual) incubated in PBS at 4° C. for 12 hours, and the full-length mouse HMGB1 produced in HEK293 (1-215(HEK)) were used. Cells of a bone marrow mesenchymal stem cell line (MSC-1) were placed in the upper chamber of a chemotaxis chamber, and the protein and synthetic peptides were added at a concentration of 5 μM or 10 μM to the lower chamber of the chemotaxis chamber. The migration assay was carried out by the same method as described above.

[2] = test system: C57BL6/J mice with traumatic injury of the spinal cord; experiment: Neurologic symptoms (Basso Mouse Scale score) in mice with traumatic injury of the spinal cord; type: in vivo; conditions: five daily administrations
Excerpt: (§1) Seven-week-old female C57BL6/J mice were used as test animals. After the mice were anesthetized by isoflurane inhalation, skin incision was made along the dorsal midline, and the vertebral arch of the ninth thoracic vertebra was exposed and excised. Dura mater was exposed at the same site, and the spinal cord was held epidurally for three seconds using a microneedle holder to produce a traumatic injury of the spinal cord. After generation of injury of the spinal cord, the skin was sutured. […] The assay reagent was prepared by diluting 100 μg of an HMGB1 fragment (amino acid sequence: amino acids of positions 11 to 44; synthesized peptide produced at MBL) in 200 μL of Dulbecco's PBS (D-PBS). 200 μL of D-PBS was used for the negative control. On the next day of operation, the first administration was performed through the tail vein, and this was followed by a total of five daily administrations. Neurologic symptoms were assessed using the Basso Mouse Scale (BMS) score on Days 1, 3, 7, 10, 14, 17, and 21 post operation.
Seven-week-old female C57BL6/J mice were used as test animals. After the mice were anesthetized by isoflurane inhalation, skin incision was made along the dorsal midline, and the vertebral arch of the ninth thoracic vertebra was exposed and excised. Dura mater was exposed at the same site, and the spinal cord was held epidurally for three seconds using a microneedle holder to produce a traumatic injury of the spinal cord. After production of injury of the spinal cord, the skin was sutured. […] An HMGB1 fragment (amino acid sequence: the amino acids of positions 11 to 44; synthetic peptide produced at MBL) was prepared by diluting 100 μg of the fragment in 200 μL of Dulbecco's PBS (D-PBS). The full-length HMGB1 protein was produced by expressing it in HEK293 as reported previously, and the purified HMGB1 (100 μg) was dissolved in 200 μL of D-PBS. 200 μL of D-PBS was used for the negative control. On the next day of operation, the first administration was performed through the tail vein, and this was followed by a total of five daily administrations. Neurologic symptoms were assessed using the BMS score on Days 1, 3, 7, and 14 post operation.
Seven-week-old female C57BL6/J mice were used as test animals. The mice were anesthetized by isoflurane inhalation, skin incision was made along the dorsal midline, and the vertebral arch of the ninth thoracic vertebra was exposed and excised. Dura mater was exposed at the same site, and the spinal cord was held epidurally for three seconds using a microneedle holder to produce a traumatic injury of the spinal cord. After production of injury of the spinal cord, the skin was sutured. […] HMGB1 fragments (amino acid sequences: amino acids from positions 11 to 44 and amino acids from positions 1 to 44; synthetic peptides produced at MBL) were prepared by diluting 100 μg of the fragment in 200 μL of D-PBS. 200 μL of D-PBS was used for the negative control. On the next day of operation, the first administration was performed via the tail vein, and this was followed by a total of five daily administrations. Neurologic symptoms were assessed using the BMS score on Days 1, 3, 7, 10, 14, 17, 21, and 28 post operation.

[3] = test system: C57BL6/J mice with traumatic injury of the spinal cord; experiment: HE staining of the damaged region of the spinal cord; type: in vivo, mouse; conditions: Example 2, 100 μg tail vein, five daily administrations, vs negative control (PBS), FIG. 2B
Excerpt: as §1

“synthetic peptide (1-34): synthetic peptide consisting of the amino acid sequence from positions 1 to 34 of HMGB1 (MGKGDPKKPRGKMSSYAFFVQTCREEHKKKHPDA; UniProt P63158 1-34, looked up, fragment)” was tested, and the migration-promoting activity [1] was “activity comparable to or higher than that of the positive control”.

“synthetic peptide (1-44): peptide consisting of the amino acids at positions 1 to 44 of the HMGB1 protein (SEQ ID NO: 5) (MGKGDPKKPRGKMSSYAFFVQTCREEHKKKHPDASVNFSEFSKK; Synthesized peptide from the HMGB1 protein)” was tested, and the “improvement of neurologic symptoms (BMS score)” value ([2]; Example 4, 100 μg tail vein, Days 1-28 post operation, vs PBS, FIG. 4, listed as 1-44) was “therapeutic effects were observed; also recorded: effective in treating injury of the spinal cord”, the “improvement of neurologic symptoms (BMS score)” value ([2]; Example 4, 100 μg tail vein, Days 1-28 post operation, vs PBS, FIG. 4, listed as HMGB1 fragment consisting of the amino acids from positions 1 to 44) was “comparable therapeutic effects” and the migration-promoting activity [1] was “activity comparable to or higher than that of the positive control”.

With “synthetic peptide (11-25): synthetic peptide consisting of the amino acid sequence from positions 11 to 25 of HMGB1 (GKMSSYAFFVQTCRE; UniProt P63158 11-25, looked up, fragment)” the migration-promoting activity [1] was “found to have the activity”.

In the case of “synthetic peptide (11-30): synthetic peptide consisting of the amino acid sequence from positions 11 to 30 of HMGB1 (GKMSSYAFFVQTCREEHKKK; UniProt P63158 11-30, looked up, fragment)”, the migration-promoting activity [1] is reported as “activity comparable to or higher than that of the positive control”.

With “synthetic peptide (11-34): synthetic peptide consisting of the amino acid sequence from positions 11 to 34 of HMGB1 (GKMSSYAFFVQTCREEHKKKHPDA; UniProt P63158 11-34, looked up, fragment)” the migration-promoting activity [1] was “activity comparable to or higher than that of the positive control”.

With “synthetic peptide (11-44): synthetic peptide consisting of the amino acid sequence from positions 11 to 44 of HMGB1 (SEQ ID NO: 4) (GKMSSYAFFVQTCREEHKKKHPDASVNFSEFSKK; Synthesized peptide from the HMGB1 protein)” the “improvement of neurologic symptoms (BMS score)” value ([2]; Example 2, 100 μg in 200 μL D-PBS, tail vein, Days 1-21 post operation, vs PBS, FIG. 2A, listed as HMGB1 fragment) was “significant improvement of neurologic symptoms was observed from Day 3 post operation; also recorded: remarkable improvement of symptoms was observed on Days 3, 7, 14, and 17 post operation”, the “improvement of neurologic symptoms (BMS score)” value ([2]; Example 2, 100 μg in 200 μL D-PBS, tail vein, Days 1-21 post operation, vs PBS, FIG. 2A, listed as HMGB1 fragment (11-44)) was “significant effects of improving neurologic symptoms were observed” and the “improvement of neurologic symptoms (BMS score)” value ([2]; Example 3, 100 μg tail vein, Days 1, 3, 7, 14, fragment vs full-length vs PBS, FIG. 3, listed as HMGB1 fragment (amino acids at positions 11-44)) was “most effective; also recorded: much more satisfactory improvement of the therapeutic effect”. The “improvement of neurologic symptoms (BMS score)” value ([2]; Example 4, 100 μg tail vein, Days 1-28 post operation, vs PBS, FIG. 4) was “therapeutic effects were observed; also recorded: effective in treating injury of the spinal cord”, the “improvement of neurologic symptoms (BMS score)” value ([2]; Example 4, 100 μg tail vein, Days 1-28 post operation, vs PBS, FIG. 4, listed as HMGB1 fragment consisting of the amino acids from positions 11 to 44) was “comparable therapeutic effects” and the “size of damaged region of the spinal cord (HE staining)” value ([3]; listed as HMGB1 fragment (11-44)) was “size of the area of injury of the spinal cord decreased”. For the same molecule, the “size of damaged region of the spinal cord (HE staining)” value ([3]; listed as HMGB1 fragment (11-44 peptide)) was “reduced” and the migration-promoting activity [1] was “activity comparable to or higher than that of the positive control”.

With “synthetic peptide (17-25): synthetic peptide consisting of the amino acid sequence from positions 17 to 25 of HMGB1 (SEQ ID NO: 3) (AFFVQTCRE; Synthesized peptide from the HMGB1 protein)” the migration-stimulating activity ([1]; 5 μM or 10 μM in lower chamber, FIG. 1B) was “smallest fragment with migration-stimulating activity; also recorded: smallest fragment that has the migration-stimulating activity”.

B1: full-length HMGB1: full-length HMGB1 protein produced by expressing it in HEK293, purified; positive control / comparator (protein, UniProt P63158 1-215, looked up)
chain: MGKGDPKKPRGKMSSYAFFVQTCREEHKKKHPDASVNFSEFSKKCSERWKTMSAKEKGKFEDMAKADKARYEREMKTYIPPKGETKKKFKDPNAPKRPPSAFFLFCSEYRPKIKGEHPGLSIGDVAKKLGEMWNNTAADDKQPYEKKAAKLKEKYEKDIAAYRAKGKPDAAKKGVVKAEKSKKKKEEEDDEEDEEDEEEEEEEEDEDEEEDDDDE
modifications: full-length
notes: full-length HMGB1 protein produced by expressing it in HEK293, purified; positive control / comparator
With B1 the “improvement of neurologic symptoms (BMS score)” value ([2]; Example 3, 100 μg tail vein, Days 1, 3, 7, 14, fragment vs full-length vs PBS, FIG. 3) was “intermediate between the effect in the HMGB1 fragment (amino acids at positions 11-44)-administered group and that in the negative control group” and the “improvement of neurologic symptoms (BMS score)” value ([2]; Example 3, 100 μg tail vein, Days 1, 3, 7, 14, fragment vs full-length vs PBS, FIG. 3, listed as HMGB1 (full-length)) was “therapeutic effect was observed; also recorded: not as effective as that in the HMGB1 fragment”.
